According to patent US10259818B2, “Bicyclic azaheterocyclobenzylamines as PI3K inhibitors” (Incyte Corporation, priority 2012, dated 2019):

Test system: SUDHL-6 cell line (diffuse large B cell lymphoma)
Assay: SUDHL-6 cell proliferation assay (Example B3)
Format: cell-based
Settings: Homo sapiens, SU-DHL-6, 72 h, SUDHL-6 cells, 3 days, Cell Titer-GLO
Procedure: Example B3: SUDHL-6 Cell Proliferation Assay
SUDHL-6 cell line (diffuse large B cell lymphoma) was purchased from ATCC (Manassas, Va.) and maintained in the culture medium recommended (RPMI and 10% FBS). To measure the anti-proliferation activity of the compounds through ATP quantitation, the SUDHL-6 cells was plated with the culture medium (5000 cells/well/per 200 μl) into 96-well polystyrene clear black tissue culture plate (Greiner-bio-one through VWR, NJ) in the presence or absence of a concentration range of test compounds. After 3 days, Cell Titer-GLO Luminescent (Promega, Madison, Wis.) cell culture agent was added to each well for 10 minutes at room temperature to stabilize the luminescent signal. This determines the number of viable cells in culture based on quantitation of the ATP present, which signals the presence of metabolically active cells. Luminescence was measured with the TopCount 384 (Packard Bioscience through Perkin Elmer, Boston, Mass.). […] IC50 data for the Examples is presented in Table 4 determined by the assay of Example B3.

| SMILES | IC50 [nM] |
| --- | --- |
| CNC(=O)C1CC(N2Cc3c(C#N)c(Cl)cc(C(C)n4nc(C)c5c(N)ncnc54)c3OC(C)C2)C1 (single isomer, unassigned) [Example 114, 3-[9-[1-(4-amino-3-methyl-1H-pyrazolo[3,4-d]pyrimidin-1-yl)ethyl]-7-chloro-6-cyano-2-methyl-2,3-dihydro-1,4-benzoxazepin-4(5H)-yl]-N-methylcyclobutane-carboxamide] | ≤ 500 |
| Cc1c(Cl)cc(C(C)n2nc(C)c3c(N)ncnc32)c2c1CN(C1CN(C(=O)OC(C)(C)C)C1)CCO2 (centres unmarked) [Example 3, tert-Butyl 3-[9-[1-(4-amino-3-methyl-1H-pyrazolo[3,4-d]pyrimidin-1-yl)ethyl]-7-chloro-6-methyl-2,3-dihydro-1,4-benzoxazepin-4(5H)-yl]azetidine-1-carboxylate] | ≤ 500 |
| CC(=O)N1CC(N2CCOc3c(C(C)n4nc(C)c5c(N)ncnc54)cc(Cl)c(C)c3C2)C1 (centres unmarked) [Example 4, 1-{1-[4-(1-Acetylazetidin-3-yl)-7-chloro-6-methyl-2,3,4,5-tetrahydro-1,4-benzoxazepin-9-yl]ethyl}-3-methyl-1H-pyrazolo[3,4-d]pyrimidin-4-amine] | ≤ 500 |
| Cc1c(Cl)cc(C(C)n2nc(C)c3c(N)ncnc32)c2c1CN(C1CCC1)CCO2 (centres unmarked) [Example 5, 1-[1-(7-Chloro-4-cyclobutyl-6-methyl-2,3,4,5-tetrahydro-1,4-benzoxazepin-9-yl)ethyl]-3-methyl-1H-pyrazolo[3,4-d]pyrimidin-4-amine bis(trifluoroacetate)] | ≤ 500 |

Second part, the compound after the results:

| IC50 [nM] | SMILES |
| --- | --- |
| ≤ 500 | CCNC(=O)N1CC(N2Cc3c(C#N)c(Cl)cc(C(C)n4nc(C)c5c(N)ncnc54)c3OC(C)C2)C1 (single isomer, unassigned) [Example 97, 3-[9-[1-(4-amino-3-methyl-1H-pyrazolo[3,4-d]pyrimidin-1-yl)ethyl]-7-chloro-6-cyano-2-methyl-2,3-dihydro-1,4-benzoxazepin-4(5H)-yl]-N-ethylazetidine-1-carboxamide] |
| ≤ 500 | CCOC(=O)N1CC(N2Cc3c(C#N)c(Cl)cc(C(C)n4nc(C)c5c(N)ncnc54)c3OC(C)C2)C1 (single isomer, unassigned) [Example 99, ethyl 3-[9-[1-(4-amino-3-methyl-1H-pyrazolo[3,4-d]pyrimidin-1-yl)ethyl]-7-chloro-6-cyano-2-methyl-2,3-dihydro-1,4-benzoxazepin-4(5H)-yl]azetidine-1-carboxylate] |
| ≤ 500 | Cc1nn(C(C)c2cc(Cl)c(C#N)c3c2OC(C)CN(C2CN(C(=O)NC(C)C)C2)C3)c2ncnc(N)c12 (single isomer, unassigned) [Example 101, 3-[9-[1-(4-amino-3-methyl-1H-pyrazolo[3,4-d]pyrimidin-1-yl)ethyl]-7-chloro-6-cyano-2-methyl-2,3-dihydro-1,4-benzoxazepin-4(5H)-yl]-N-isopropylazetidine-1-carboxamide] |
| ≤ 500 | Cc1nn(C(C)c2cc(Cl)c(C#N)c3c2OC(C)CN(C2CN(CCO)C2)C3)c2ncnc(N)c12 (single isomer, unassigned) [Example 104, 9-[1-(4-amino-3-methyl-1H-pyrazolo[3,4-d]pyrimidin-1-yl)ethyl]-7-chloro-4-[1-(2-hydroxyethyl)azetidin-3-yl]-2-methyl-2,3,4,5-tetrahydro-1,4-benzoxazepine-6-carbonitrile] |
| ≤ 500 | Cc1nn(C(C)c2cc(Cl)c(C#N)c3c2OC(C)CN(C2CN(S(=O)(=O)N(C)C)C2)C3)c2ncnc(N)c12 (single isomer, unassigned) [Example 105, 3-[9-[1-(4-amino-3-methyl-1H-pyrazolo[3,4-d]pyrimidin-1-yl)ethyl]-7-chloro-6-cyano-2-methyl-2,3-dihydro-1,4-benzoxazepin-4(5H)-yl]-N,N-dimethylazetidine-1-sulfonamide] |
| ≤ 500 | Cc1nn(C(C)c2cc(Cl)c(C#N)c3c2OC(C)CN(CC#N)C3)c2ncnc(N)c12 (single isomer, unassigned) [Example 108, 9-[1-(4-amino-3-methyl-1H-pyrazolo[3,4-d]pyrimidin-1-yl)ethyl]-7-chloro-4-(cyanomethyl)-2-methyl-2,3,4,5-tetrahydro-1,4-benzoxazepine-6-carbonitrile] |
| ≤ 500 | Cc1nn(C(C)c2cc(Cl)c(C#N)c3c2OC(C)CN(CC(N)=O)C3)c2ncnc(N)c12 (single isomer, unassigned) [Example 110, 2-[9-[1-(4-amino-3-methyl-1H-pyrazolo[3,4-d]pyrimidin-1-yl)ethyl]-7-chloro-6-cyano-2-methyl-2,3-dihydro-1,4-benzoxazepin-4(5H)-yl]acetamide] |
| ≤ 500 | COCCN1Cc2c(C#N)c(Cl)cc(C(C)n3nc(C)c4c(N)ncnc43)c2OC(C)C1 (single isomer, unassigned) [Example 112, 9-[1-(4-amino-3-methyl-1H-pyrazolo[3,4-d]pyrimidin-1-yl)ethyl]-7-chloro-4-(2-methoxyethyl)-2-methyl-2,3,4,5-tetrahydro-1,4-benzoxazepine-6-carbonitrile] |

Same assay, conditions: SUDHL-6 cells, 3 days, Cell Titer-GLO

| IC50 [nM] | SMILES |
| --- | --- |
| ≤ 500 | CCNC(=O)N1CC(N2Cc3c(C#N)c(Cl)cc(C(C)n4nc(C)c5c(N)ncnc54)c3OC(C)C2)C1 (single isomer, unassigned) [Example 98, 3-[9-[1-(4-amino-3-methyl-1H-pyrazolo[3,4-d]pyrimidin-1-yl)ethyl]-7-chloro-6-cyano-2-methyl-2,3-dihydro-1,4-benzoxazepin-4(5H)-yl]-N-ethylazetidine-1-carboxamide] |
| ≤ 500 | CCOC(=O)N1CC(N2Cc3c(C#N)c(Cl)cc(C(C)n4nc(C)c5c(N)ncnc54)c3OC(C)C2)C1 (single isomer, unassigned) [Example 100, ethyl 3-[9-[1-(4-amino-3-methyl-1H-pyrazolo[3,4-d]pyrimidin-1-yl)ethyl]-7-chloro-6-cyano-2-methyl-2,3-dihydro-1,4-benzoxazepin-4(5H)-yl]azetidine-1-carboxylate] |
| ≤ 500 | Cc1nn(C(C)c2cc(Cl)c(C#N)c3c2OC(C)CN(C2CN(C(=O)NC(C)C)C2)C3)c2ncnc(N)c12 (single isomer, unassigned) [Example 102, 3-[9-[1-(4-amino-3-methyl-1H-pyrazolo[3,4-d]pyrimidin-1-yl)ethyl]-7-chloro-6-cyano-2-methyl-2,3-dihydro-1,4-benzoxazepin-4(5H)-yl]-N-isopropylazetidine-1-carboxamide] |
| ≤ 500 | Cc1nn(C(C)c2cc(Cl)c(C#N)c3c2OC(C)CN(C2CN(S(=O)(=O)N(C)C)C2)C3)c2ncnc(N)c12 (single isomer, unassigned) [Example 106, 3-[9-[1-(4-amino-3-methyl-1H-pyrazolo[3,4-d]pyrimidin-1-yl)ethyl]-7-chloro-6-cyano-2-methyl-2,3-dihydro-1,4-benzoxazepin-4(5H)-yl]-N,N-dimethylazetidine-1-sulfonamide] |
| ≤ 500 | CNC(=O)C1CC(N2Cc3c(C#N)c(Cl)cc(C(C)n4nc(C)c5c(N)ncnc54)c3OC(C)C2)C1 (single isomer, unassigned) [Example 115, 3-[9-[1-(4-amino-3-methyl-1H-pyrazolo[3,4-d]pyrimidin-1-yl)ethyl]-7-chloro-6-cyano-2-methyl-2,3-dihydro-1,4-benzoxazepin-4(5H)-yl]-N-methylcyclobutane-carboxamide] |
